# Results published in patent publication US9144594B2, “Cathepsin L mediated diseases and associated methods and products” (University of Miami, priority 2005, dated 2015).
# Entries after “also recorded” stand apart in the source; their conditions may differ. Where a SMILES comes first, the peptide text is derived from it. The star is where a group is joined. Cbz = O=C(OCc1ccccc1)*; CH2F = FC*
# B1: dynI690K: dynamin mutant with defective higher order assembly of tetramers (protein)
# chain: MGNRGMEDLIPLVNRLQDAFSAIGQNADLDLPQIAVVGGQSAGKSSVLENFVGRDFLPRGSGIVTRRPLVLQLVNATTEYAEFLHCKGKKFTDFEEVRLEIEAETDRVTGTNKGISPVPINLRVYSPHVLNLTLVDLPGMTKVPVGDQPPDIEFQIRDMLMQFVTKENCLILAVSPANSDLANSDALKVAKEVDPQGQRTIGVITKLDLMDEGTDARDVLENKLLPLRRGYIGVVNRSQKDIDGKKDITAALAAERKFFLSHPSYRHLADRMGTPYLQKVLNQQLTNHIRDTLPGLRNKLQSQLLSIEKEVEEYKNFRPDDPARKTKALLQMVQQFAVDFEKRIEGSGDQIDTYELSGGARINRIFHERFPFELVKMEFDEKELRREISYAIKNIHGIRTGLFTPDMAFETIVKKQVKKIREPCLKCVDMVISELISTVRQCTKKLQQYPRLREEMERIVTTHIREREGRTKEQVMLLIDIELAYMNTNHEDFIGFANAQQRSNQMNKKKTSGNQDEILVIRKGWLTINNIGIMKGGSKEYWFVLTAENLSWYKDDEEKEKKYMLSVDNLKLRDVEKGFMSSKHIFALFNTEQRNVYKDYRQLELACETQEEVDSWKASFLRAGVYPERVGDKEKASETEENGSDSFMHSMDPQLERQVETIRNLVDSYMAIVNKTVRDLMPKTIMHLMKNNTKEFIFSELLANLYSCGDQNTLMEESAEQAQRRDEMLRMYHALKEALSIIGDINTTTVSTPMPPPVDDSWLQVQSVPAGRRSPTSSPTPQRRAPAVPPARPGSRGPAPGPPPAGSALGGAPPVPSRPGASPDPFGPPPQVPSRPNRAPPGVPSRSGQASPSRPESPRPPFDL
# Assays:
# [1] = test system: podocytes; test: Scrape wound (wound healing) assay of podocytes; type: cell-based, mouse; conditions: pretreatment 24 h; untreated cells 31%
# Description: Functionally, lipid raft-associated uPAR has been implicated in cell migration (21). The motility of cultured podocytes was analyzed to explore the consequences of increased uPAR expression in lipid rafts. First, podocyte cell lines were established with stable knock down of uPAR expression using siRNA. The efficiency of uPAR-siRNA was confirmed by both semi-quantitative RT-PCR (>90% inhibition) and Western blotting (>70%) (FIG. 12A). A modified multi-well Boyden chamber assay was used to assess the random migration of differentiated podocytes. […] To test whether this effect was mediated by uPAR, uPAR knock-down studies were performed by stably transfecting uPAR-siRNA into podocytes. […] The distance from the wound margin migrated by cells was related to the total distance of the scar and expressed as percentage closure 12 h after post-wound incubation. […]
# To study the directional movement of podocytes, wound healing assay was performed. […] The cell migratory distance was calculated by averaging the distance from the wound edge to the DAPI-labeled nucleus of the maximally migrated cell in five distinct border zones. The percentage of closure was calculated as migratory distance from both sides versus initial wound track width.
# [2] = test system: cathepsin L; test: Generation of dynamin p40 fragment in LPS-treated cultured podocytes (Western blot); type: cell-based, mouse; conditions: LPS-treated podocytes expressing dynWT
# From the text: Next, it was examined whether cathepsin L could process dynamin in vivo, and whether this processing required GTP binding by dynamin. To this end, cultured podocytes were infected with adenoviruses expressing dynWT as well as different dynamin mutants. Infected podocytes were subsequently treated with LPS. LPS treatment increases cathepsin L presence and the activity in the cytosol (FIG. 3), and thus is expected to induce generation of the 40 kD proteolytic fragment. Respective cytosols were probed using the GTPase antibodies in order to detect N-terminal 40 kD proteolytic fragment. Expression of dynWT in podocytes treated with LPS identified proteolytic fragments that traveled with the same mobility as fragments observed in vitro. […] Furthermore, significant amount of p40 was present in cells expressing dynR725A prior to LPS treatment. […] Given complete protection of cathepsin L cleavage by GTPγS, it was reasoned that LPS treatment was somehow inducing dynR725A self-assembly, which in turn was protecting dynR725A from cathepsin L cleavage. This in turn would explain ability of dynR725A to counteract LPS and PAN treatment (FIG. 1D). […] Biochemical difference between dynWT, dynK694A and dynR725A is that only dynR725A is impaired in the rate of GTP-hydrolysis of assembled dynamin. This is important because GTP-hydrolysis drives disassemble of dynamin. Thus, while all three dynamins are predicted to self-assemble by LPS treatment, only dynR725A will stay assembled due to its inability to hydrolyze GTP. Once assembled dynWT and dynK694A hydrolyze GTP they will fall apart and thus become accessible for cathepsin L cleavage.
# To explore CatL-mediated dynamin cleavage in vivo, cultured podocytes were infected with adenoviruses encoding different dynamin mutants and subsequently treated with LPS (FIG. 19G). […] To confirm the identity of the cleavage site, the ELSGGA (SEQ ID NO.29) sequence was mutated to EQSVGA (SEQ ID NO.31) (for simplicity, the mutant is subsequently referred to as dynL356Q). […] Finally, a GTPase-defective dynamin mutant was examined. Dynamin carrying a mutation in its […] (dynR725A) oligomerizes, but is impaired in assembly-stimulated GTP-hydrolysis. DynR725A is therefore predicted to live longer in the assembled state.
# Podocytes were grown under non-permissive conditions to 70% confluence. Cells were washed twice with 1×PBS and infected with 1.2 ml of serum-free DMEM media containing 100 μl transactivator virus, 100 μl virus expressing dyn1 or dyn2. After 2 h of infection at 37° C., media containing virus was replaced with full DMEM. If cells were treated with LPS or PAN, 50 μg/ml of LPS or 50 μg/ml PAN was added at this point. 18-24 h post-infection, cells were detached using trypsin and processed either for subcellular fractionation or tested in the motility assays as described in (Reiser et al., J Biol Chem 279, 34827-34832 (2004)). When stated, 20 μM of Z-FF-FMK CatL specific inhibitor (Calbiochem, San Diego, Calif.) was added simultaneously with addition of LPS.
# [3] = test system: CatL; test: Cathepsin activity in LPS-treated podocytes with fluorogenic substrate CV-(FR)2; type: cell-based, mouse; conditions: after LPS administration
# From the text: (§1) Finally, it was examined whether CatL can be enzymatically active in the cytosol. Subcellular sites of CatL and CatB activity were visualized by a fluorogenic substrate, CV-(FR)2, which emits light upon cleavage by CatL. In untreated podocytes, protease activity was low and confined to perinuclear lysosomes (FIG. 17F).
# [4] = target: T1, CatB (Mus musculus, UniProt P10605); test: Cathepsin activity in podocytes with fluorogenic substrate CV-(FR)2, CatB; type: cell-based
# T1 construct: endogenous in cells; host or cells: cultured mouse podocytes
# From the text: as §1
# [5] = test system: lysosomes; test: Lysosomal leakage assay using Lucifer Yellow in podocytes; type: cell-based, mouse
# From the text: Next the reason for the relocalization of CatL in LPS treated podocytes was examined. To examine the possibility of lysosomal leakage, the localization of Lucifer Yellow, a cellular dye that is readily taken up into lysosomes was examined.
# [6] = test system: dynamin-dynamin interactions; test: FLIM analysis of dynamin-dynamin interactions (self-assembly) in podocytes; type: cell-based, mouse; conditions: Table 4; donor GTPase-a488, acceptor Hudy1-a568; in ps
# Description: In one embodiment the cell-based assay to monitor dynamin-dynamin interactions is performed on a cultured mouse podocyte cell line and the readout of dynamin self-assembly using fluorescence lifetime imaging microscopy (FLIM). FLIM is based on the fluorescence resonance energy transfer (FRET) between the donor and acceptor that shortens the lifetime of the donor if the acceptor distance is within ≈100 Å (10 nm). […] The assay is based on overexpressing dynamin in podocytes, and subsequently staining fixed cells with monoclonal anti-dynamin antibodies that have been conjugated with donor or acceptor florophores. In one embodiment of the invention, Alexa-488 is used as the donor florophore and Alexa-568 is used as the acceptor florophore. In yet another embodiment the donor florophore is dynamin conjugated enhanced-cyan fluorescence protein (ECFP) and the acceptor is dynamin conjugated enhanced yellow-fluorescence protein (EYFP). It will be appreciated by the person of ordinary skill in the art that numerous combinations of FRET donor and acceptors can be used, which are readily available and known. In one embodiment, the FLIM assay is carried out in COS cells and the donor can be selected from the list consisting of: ECFP-WT, ECFP-1690K, ECFP-K44A, ECFP-K694A, and the -acceptor can be selected from the list consisting of: EYFP, EYFP-WT, EYFP-K44A, EYFP-1690K, EYFP-K694A. In yet another embodiment the FLIM assay is performed in podocytes and the donor is GTPase-Alexa488 and the acceptor is selected from the list consisting of: DAM-Alexa568, GTPase-Alexa568, and Hudyl-Alexa568. Cells are stained by mixing both donor and acceptor florophores in equal amounts, and examining the spatially-restricted lifetime shortening in cells detects the localization of dynamin-dynamin interactions in cells. Since dynamin-dynamin interactions are vital for the function of the podocyte, it will be appreciated by the person of ordinary skill in the art that this assay can now be used to screen peptides, small molecules or drugs which can affect these molecular interactions. For example such molecules are cytocholasin D, jasplakinolide, colchisine, dynK44A, dynK694A, dynWT, dynI690K, dynR725A (SEQ ID NO.4), dynL356Q, G358V, (SEQ ID NO.3) any combination thereof, etc.
# In order to test the hypothesis that self-assembly of dynamin was protecting its cathepsin L processing in cultured podocytes, dynamin self-assembly in live cells was examined using fluorescence lifetime imaging microscopy (FLIM). FLIM is based on the fluorescence resonance energy transfer (FRET) between the donor and the acceptor that shortens the lifetime of the donor if the acceptor distance is within ≈100 Å (10 nm). […] A FLIM-assay was developed that specifically detects dynamin self-assembly into the higher order structures in podocytes. The assay is based on overexpressing dynamin in podocytes, and subsequently staining fixed cells with monoclonal anti-dynamin antibodies that have been conjugated with either Alexa-488 (donor florophore) or Alexa-568 (acceptor florophore). Cells are stained by mixing both florophores in equal amounts, and examining lifetime of Alexa-488. […] Importantly, FRET only occurred in the vicinity of the membrane. […] Thus, both dominant activating mutants, dynK694A and dynR725A, are impaired for assembly into a supramolecular structures in podocytes under normal conditions. […] Loss of FRET measured FLIM correlates with the loss of p40 proteolytic fragment in cultured podocytes. And presence of p40 in cells expressing dynR725A under normal conditions correlates with the lack of dynR725A assembly detected by FLIM. The opposite is true for the dynWT; lack of p40 under control conditions when FLIM is present, and appearance of the p40 upon LPS treatment with no measurable FRET. […] Finally, proteolytic processing of dynamin after LPS treatment is also observed in vivo. […]
# [7] = test system: dynamin; test: Dynamin self-assembly, apparent affinity measured in vitro; type: biochemical
# From the text: The fact that this significant decrease in the fluorescence lifetime of ECFP is statistically insignificant is due to high fluctuations of the lifetimes between different cells (high error bar in Table 3). This is most likely due to ability of dynK694A to overcome its assembly defect under certain circumstances as shown in vitro. The fact that ECFP-dynK694A has a faster lifetime than ECFP-dynI690K is in agreement with its less severe assembly defect measured in vitro (apparent affinity of dynK694A is ˜7-fold lower then dynWT, whereas it is unmeasurable for dynI690K).
# T1 sequence (P10605 80-333): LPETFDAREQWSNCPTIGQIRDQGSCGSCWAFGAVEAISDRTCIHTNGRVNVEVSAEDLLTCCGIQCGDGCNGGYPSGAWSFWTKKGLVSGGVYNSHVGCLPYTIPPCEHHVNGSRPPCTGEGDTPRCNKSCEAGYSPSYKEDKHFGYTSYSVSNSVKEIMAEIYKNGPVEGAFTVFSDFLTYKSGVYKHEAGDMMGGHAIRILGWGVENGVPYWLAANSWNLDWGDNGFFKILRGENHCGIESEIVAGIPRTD
molecule,measurement,setting,value
"CN(C)c1ncnc2c1ncn2[C@@H]1O[C@H](CO)[C@@H](N)[C@H]1O [PAN, puromycin aminonucleoside]",percentage closure 12 h after post-wound incubation,[1],63%
"O=C(NC(Cc1ccccc1)C(=O)NC(Cc1ccccc1)C(=O)CF)OCc1ccccc1 (stereo not drawn) [Z-FF-FMK, Z-Phe-Phe-fluoromethyl ketone, reference compound] (Cbz-Phe-Phe-CH2F; configuration not given here)","dynamin cleavage / p40 generation with inhibitor, in words",[2],resulted specifically in the loss of p40; also recorded: inhibited
same,"extralysosomal cathepsin activity, in words",[3],vast majority of extralysosomal cathepsin activity after LPS administration was sensitive
same,"inhibition of CatB, in words",[4],does not inhibit CatB
CCCCCCCCCCCCC/C=C/[C@@H](O)[C@@H](N)CO [sphingosine],"lysosomal integrity (Lucifer Yellow), in words",[5],led to the expected lysosomal rupture
B1,Mean Lifetime (γ1),[6],2359 ± 120
same,"apparent affinity for self-assembly, fold lower than dynWT",[7],unmeasurable
